Reference: patent US10583162B2, “Compositions useful in the prevention and/or treatment of osteoarticular inflammation and pain and cartilage damage” (Indena S.P.A., priority 2016, dated 2020)

Legend:
[1] = system: patients suffering from joint disease of the knee with constant pain; experiment: Analgesic activity on analogue pain scale 0 to 10 (Example 6); type: in vivo, Humans; details: second day
Text: 40 patients suffering from joint disease of the knee with constant pain were randomised and treated with two tablets a day, one in the morning and one in the evening, of the composition of example 4, or a placebo (consisting of the carrier only), or the ingredients of the composition of example 1 added individually to the placebo formulation in amounts equal to those present in the composition of example 4.
Efficacy was scored on an international analogue pain scale with scores from 0 to 10, 10 points indicating maximum pain and 0 the disappearance of pain. The effect was evaluated on the second day after administration of the tablet, in the morning 60 and 120 minutes after treatment.

[2] = system: patients with osteoarthritis, mainly located in the knee; experiment: Blinded study vs piroxicam and placebo, analgesic effect on WOMAC scale (Example 5); type: in vivo, Humans
Text: The analgesic activity of a composition according to the invention comprising Vitis vinifera extract complexed with phospholipids, lipophilic extract of Zingiber officinale, lipophilic extract of Zanthoxylum piperitum and an unsaponifiable fraction of Olea europaea was compared with the activity of piroxicam and a placebo. In a blinded study conducted on 180 patients with osteoarthritis, mainly located in the knee, the composition of example 1 was compared with piroxicam and a placebo by conducting a three-month treatment after randomisation, and check-ups on the joint function for six months after discontinuance of the treatment. At the beginning, the analgesic effect, measured with the Western Ontario and McMaster University Osteoarthritis (WOMAC) scale, was evaluated after 7 days' treatment with two capsules/day of the composition of example 1 vs. two […] capsules of piroxicam or placebo. After the first 7 days, the treatment continued for three months, the analgesic effect being measured once a month.

## CC(=O)Oc1cccc2c1C(=O)c1c(OC(C)=O)cc(C(=O)O)cc1C2=O [Diacerein, diacerein]
[1]; 60 minutes after treatment
  Pain (scores) at time 60 min.: 8.2 ± 0.9
[1]; 120 minutes after treatment
  Pain (scores) at time 120 min.: 7.9 ± 0.8
[1]; time 0 (before the morning tablet)
  Pain (scores) at time 0: 9.1 ± 1.5

## CN1C(C(=O)Nc2ccccn2)=C(O)c2ccccc2S1(=O)=O [piroxicam]
[2]; 4th month, after discontinuance of the treatment
  result (analgesic effect, WOMAC scale): −41%+/−38
[2]; 5th month, after discontinuance of the treatment
  result (analgesic effect, WOMAC scale): −24%+/−23
[2]; double-blind trial, after discontinuance
  efficacy maintained after discontinuance of the treatment: needed to continue the treatment
[2]; during the third month's treatment, two capsules/day
  result (analgesic effect, WOMAC scale): −72%+/−31.4
[2]; three-month treatment
  tolerability: had to be discontinued due to evident side effects
[2]; three-month treatment, WOMAC
  analgesic effect (comparison of the two treated groups): comparable analgesic effect
